We go through 22 molecules from PubChem BioAssay (NCI).

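Five concentrations, 48 hours, 96-well plates. Here, GI50 denotes the concentration required for 50% inhibition of growth. At the TGI there is no net growth.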

What all share (assay): NCI anticancer screen, dose series, 48 h
The subject of assay [1] is A498 renal.
Assay [2] has as its system ACHN renal.
In assay [3] the test system is HOP-92 NSCLC.
In assay [4] the test system is NCI/ADR-RES ovarian.
The subject of assay [5] is OVCAR-3 ovarian.
The test system of assay [6] is SNB-75 CNS.
In assay [7] the test system is TK-10 renal.
For assay [8], the system named is UACC-257 melanoma.
For assay [9], the system named is UO-31 renal.
For assay [10], the system named is SK-MEL-2 melanoma.

Regarding `COC(=O)[C@H]1C(=O)[C@@]2(C)[C@H]([C@H](OC(=O)c3ccccc3)[C@]3(O)C[C@H](OC(=O)[C@H](O)[C@@H](NC(=O)c4ccc(F)cc4)c4ccccc4)C(C)=C1C3(C)C)[C@]1(OC(C)=O)CO[C@@H]1C[C@@H]2O`, the GI50 is 0.0315 µM in [1]; 1.6 µM in [2]; 4.61 µM in assay [4]; 0.00722 µM in assay [5]; 0.00273 µM in [6]; 0.0676 µM in assay [7]. The values for the GI50 in assay [8] and in assay [9] were 0.0673 µM and 1.89 µM, respectively. In addition, the TGI is above 25 µM in [2]; above 14.5 µM in assay [3]; above 25 µM in assay [4]; 0.0222 µM in assay [5]; 0.0443 µM in assay [6]; 3.91 µM in [7]. Also, the TGI in assay [8] and in assay [9] was above 25 µM each time.
Take `CO/[N+]([O-])=C\C(=O)N/C=C/C(=O)O`: the TGI in assay [1], in assay [2], in assay [3], in [4], in [5] and in [6] was above 100 µM each time. The TGI in [8] and in assay [9] was above 100 µM throughout.
On to `CN(C)CCCNC(=O)c1ccc2oc3cc4ccccc4c(=O)n3c2c1`, for which the GI50 in [2] was 11.8 µM; in assay [3] it was above 50 µM; in assay [4], above 50 µM; in assay [5], 8.7 µM; in assay [10], above 50 µM; in assay [6], 12.6 µM. The GI50 was 10.3 µM in [7], 20.6 µM in assay [8] and 18.3 µM in assay [9]. Besides, the TGI in [2] was above 50 µM; in assay [3], above 50 µM; in assay [4] it was above 50 µM; in assay [5], above 50 µM; in assay [10], above 50 µM; in assay [6] it was 33.1 µM. Further, the TGI in [7], in assay [8] and in [9] was above 50 µM each time.
In the case of `Fc1ccc(-c2nn3c(CNc4ccccc4)nnc3s2)cc1`, the GI50 in assay [1] is 37 µM; in assay [2], 66.8 µM; in assay [3] it was 17.5 µM; in assay [4], 13.6 µM; in assay [5], 12.2 µM; in assay [6], 52.2 µM. Besides, the GI50 in [7] was 30.2 µM; in [8], 36.2 µM; in [9] it was 42.8 µM. The TGI in assay [1] was above 100 µM; in assay [2] it was above 100 µM; in assay [3] it was above 100 µM; in assay [4], 53.6 µM; in [5] it was 49.1 µM; in [6] it was above 100 µM. The TGI in [7], in [8] and in assay [9] was above 100 µM throughout.
With `NC(=O)/C(=C\c1ccncc1)c1cccc2ccccc12`, the TGI in assay [2], in assay [3], in assay [4], in assay [5], in assay [10] and in assay [6] was above 100 µM throughout. The TGI in [7] is above 100 µM; in assay [8], 8.49 µM; in assay [9] it was above 100 µM.
Take `O=C(NCCc1ccccc1)C(c1ccccc1)(c1ccccc1)c1ccccc1`: the GI50 in assay [2] was 3.13 µM; in assay [3] it was above 100 µM; in [4], 2.23 µM; in assay [5] it was 5.78 µM; in [10], 7.04 µM; in assay [6], above 100 µM. The GI50 in assay [7] is 1.86 µM; in [9] it was 6.32 µM. Also, the TGI is 9.35 µM in [2]; above 100 µM in [3]; 6.59 µM in assay [4]; above 100 µM in assay [5]; 29.8 µM in [10]; above 100 µM in assay [6]. Also, the figures for the TGI in assay [7] and in assay [9] were 9.42 µM and 43.4 µM, respectively.
Turning to `COC(=O)C(Cc1cnc[nH]1)NC(=O)CNC(=O)CCCn1c(=O)c2c3ccccc3n(C)c2n2nnc(-c3ccccc3)c12` (centres undefined), the GI50 in assay [1], in assay [2], in assay [4], in assay [5], in assay [10] and in assay [6] was above 100 µM each time. The GI50 in assay [7], in assay [8] and in [9] was above 100 µM each time. In addition, the TGI in [1], in assay [2], in assay [4], in assay [5], in [10] and in [6] was above 100 µM throughout. In addition, the TGI in [7], in [8] and in assay [9] was above 100 µM in each case.
For `Nc1ccccc1SC(CC(=O)c1ccccc1)c1ccc([N+](=O)[O-])cc1` (centres undefined), the GI50 in assay [1] is 14.3 µM; in [2], 11.8 µM; in assay [4], 14.5 µM; in assay [5], 11.4 µM; in [10], 18 µM; in assay [6] it was 11.2 µM. Besides, the GI50 is 18.6 µM in [7], 14.5 µM in assay [8] and 7.75 µM in assay [9]. Besides, the TGI came out at 27.7 µM in [1]; 24.2 µM in assay [2]; 28.9 µM in assay [4]; 23.7 µM in [5]; 33 µM in [10]; 23.3 µM in assay [6]. Also, the TGI in assay [7] turned out to be 32.7 µM; in [8] it was 27.8 µM; in assay [9], 21.5 µM.
On to `CNC1C(O)C(OC2C(N)CC(N)C(OC3OC(CN)=CCC3N)C2O)OCC1(C)O` (centres undefined), for which the TGI in assay [1], in assay [2], in [3], in assay [4], in assay [5] and in assay [10] was above 100 µM throughout. The TGI in assay [6], in assay [8] and in [9] was above 100 µM throughout.
In the case of `CCC(=O)C1(c2ccccc2)CCN(C)CC1`, the TGI in assay [1], in [2], in assay [3], in assay [4], in [6] and in assay [7] was above 100 µM in each case. The TGI in assay [8] and in assay [9] was above 100 µM in each case.
For `CCOC(=O)C[C@@H](C)[C@]1(C(=O)OC)CCCC1=O`, the TGI in [1], in assay [2], in assay [3], in assay [5], in assay [10] and in [6] was above 100 µM in each case. Moreover, the TGI in assay [7], in assay [8] and in assay [9] was above 100 µM each time.
`COc1ccc(CCN2CCCN3C2=Nc2ccccc2S3(=O)=O)cc1`: the GI50 in assay [1] was 0.195 µM; in assay [2] it was 0.736 µM; in assay [3] it was 0.348 µM; in assay [4], 0.3 µM; in assay [10], 0.521 µM; in assay [6], 0.296 µM. Moreover, the results for the GI50 in assay [7] and in assay [9] were 91 µM and 0.913 µM, respectively. Also, the TGI in assay [1] is 3.2 µM; in assay [2], above 100 µM; in [3], 13.4 µM; in assay [4], 6.8 µM; in assay [10] it was above 100 µM; in [6], above 100 µM. Further, the TGI in [7] and in assay [9] was above 100 µM each time.
`COc1cc2c(c(OC)c1O)-c1ccc(OC)c(=O)cc1[C@@H](NC(=O)C(F)(F)F)CC2`: the TGI in assay [1] is 2.21 µM; in assay [2], above 100 µM; in [3], above 100 µM; in [4], above 100 µM; in assay [5] it was 0.151 µM; in assay [7], above 100 µM. Moreover, the TGI in assay [8] and in [9] was above 100 µM throughout.
In the case of `COc1cccc(NC(=O)C(C)(C)C)c1C=O`, the TGI in assay [1], in assay [2], in [3], in [5], in assay [10] and in [6] was above 100 µM each time. Besides, the TGI in assay [7] is above 100 µM; in [8], above 100 µM; in [9] it was 77.3 µM.
Turning to `CCCCCCCCCCCCCCCCOCC(CN(C)CCN(C)C)OCCCCCCCCCCCCCCCC` (centres undefined), the TGI in assay [1], in assay [2], in assay [3], in assay [5], in assay [10] and in [6] was above 100 µM each time. For the same molecule, the TGI in assay [7], in [8] and in [9] was above 100 µM each time.
With `COc1c2ccoc2cc2oc(=O)ccc12`, the TGI in assay [1], in [2], in assay [3], in assay [4], in [5] and in assay [10] was above 100 µM throughout. The TGI in assay [6], in [7] and in [8] was above 100 µM throughout.
Consider `N=C(N)/N=C(\N)c1c(-c2cc(O)ccc2O)nc2sccn12`, for which the GI50 in [1] was above 100 µM; in assay [2], 20.8 µM; in [3], 18.3 µM; in [4] it was 82.3 µM; in assay [5] it was 21.8 µM; in [10] it was 44.9 µM. The values for the GI50 in [7], in assay [8] and in [9] were 17.9 µM, 25.1 µM and 22.3 µM, respectively. For the same molecule, the TGI in assay [1] is above 100 µM; in [2] it was 40.5 µM; in assay [3], 55.3 µM; in [4], above 100 µM; in assay [5], 54.8 µM; in assay [10], above 100 µM. The TGI in assay [7] was determined as 36.4 µM; in [8], 62.7 µM; in assay [9] it was 47.9 µM.
Consider `N.N.N.N.O=NN1CCCCCC1(P(=O)([O-])[O-])P(=O)([O-])[O-].[Pt+4].[Pt+4]`, for which the GI50 in [1] is above 100 µM; in assay [2] it was above 100 µM; in assay [3] it was above 100 µM; in assay [5] it was above 100 µM; in [10] it was 79.6 µM; in [6], above 100 µM. Also, the GI50 in [7], in assay [8] and in [9] was above 100 µM in each case. Further, the TGI in [1], in assay [2], in [3], in [5], in assay [10] and in assay [6] was above 100 µM in each case. Moreover, the TGI in assay [7], in assay [8] and in [9] was above 100 µM throughout.
For the molecule `Cc1ccc2c(c1)C(C)Cc1c(ncnc1-n1cnc3cc(C)ccc31)N2C` (centres undefined), the GI50 in assay [1] is 0.0297 µM; in assay [2], 0.0459 µM; in assay [3] it was 0.301 µM; in assay [4], 0.0374 µM; in assay [10], 0.0419 µM; in assay [6], 0.0262 µM. The GI50 in assay [7] was 0.0866 µM; in [8], 5.34 µM; in [9], 0.0729 µM. The TGI in assay [1] came out at 2 µM; in assay [2] it was 12 µM; in assay [3] it was 5.21 µM; in assay [4], 54.3 µM; in assay [10], 15.8 µM; in [6], 13.4 µM. The TGI in assay [7] came out at 21.1 µM; in assay [8] it was 21.4 µM; in assay [9] it was 12.3 µM.
Turning to `O=C1OC(c2ccccc2)=N/C1=C\c1ccc2ccccc2c1`, the TGI in assay [1], in assay [2], in assay [3], in assay [5], in [10] and in [6] was above 100 µM each time. Besides, the TGI in [7], in assay [8] and in [9] was above 100 µM in each case.
For `C=CCCCn1ccc2ccccc21`, the TGI in assay [1], in assay [2], in assay [3], in assay [5], in assay [10] and in assay [6] was above 100 µM throughout. In addition, the TGI in assay [7], in assay [8] and in [9] was above 100 µM in each case.
As to `O=C(NCCO)c1cc2c(cn1)[nH]c1ccccc12`, the TGI in assay [1] is above 100 µM; in assay [2], above 100 µM; in [3] it was above 100 µM; in assay [5], above 100 µM; in assay [10], 33.6 µM; in [6], above 100 µM. Besides, the TGI in [7], in assay [8] and in [9] was above 100 µM each time.
